In patent US9738902B2, “Modified PYR/PYL receptors activated by ligands” (priority 2013, dated 2017):

Experiments:
Experiment in all cases: Y2H Pocket Library Screen (HAB1, X-gal)
Assay type in all cases: cell-based
PYR1 K59R V164E = biological target: T1, PYR1 K59R V164E (Arabidopsis thaliana, UniProt O49686, K59R/V164E)
T1 construct: expressed in transfected cells; host or cells: S. cerevisiae Y190
In short: (§1)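 Mutant PYR1 variants are screened in yeast two-hybrid against HAB1, with 100 μM compound in –Leu/–Trp dextrose agar; responsiveness is judged by X-gal staining after 2 days at 30° C.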

PYR1 K59R N167C = biological target: T2, PYR1 K59R N167C (Arabidopsis thaliana, UniProt O49686, K59R/N167C)
T2 construct: expressed in transfected cells; host or cells: S. cerevisiae Y190 two-hybrid reporter strain
In short: as §1

PYR1 K59R M158V = biological target: T3, PYR1 K59R M158V (Arabidopsis thaliana, UniProt O49686, K59R/M158V)
T3 construct: expressed in transfected cells; host or cells: S. cerevisiae Y190 two-hybrid reporter strain
In short: as §1

PYR1 K59R T162L = biological target: T4, PYR1 K59R T162L (Arabidopsis thaliana, UniProt O49686, K59R/T162L)
T4 construct: expressed in transfected cells; host or cells: S. cerevisiae Y190
In short: as §1

PYR1 K59R V164T = biological target: T5, PYR1 K59R V164T (Arabidopsis thaliana, UniProt O49686, K59R/V164T)
T5 construct: expressed in transfected cells; host or cells: S. cerevisiae Y190 two-hybrid reporter strain
In short: as §1

PYR1 K59R V164M = biological target: T6, PYR1 K59R V164M (Arabidopsis thaliana, UniProt O49686, K59R/V164M)
T6 construct: expressed in transfected cells; host or cells: S. cerevisiae Y190
In short: as §1

PYR1 K59R N167S = biological target: T7, PYR1 K59R N167S (Arabidopsis thaliana, UniProt O49686, K59R/N167S)
T7 construct: expressed in transfected cells; host or cells: S. cerevisiae Y190 two-hybrid reporter strain
In short: as §1

PYR1 K59R A160N = biological target: T8, PYR1 K59R A160N (Arabidopsis thaliana, UniProt O49686, A160N/K59R)
T8 construct: expressed in transfected cells; host or cells: S. cerevisiae Y190
In short: as §1

PYR1 K59R N167Q = biological target: T9, PYR1 K59R N167Q (Arabidopsis thaliana, UniProt O49686, K59R/N167Q)
T9 construct: expressed in transfected cells; host or cells: S. cerevisiae Y190 two-hybrid reporter strain
In short: as §1

PYR1 K59R V164C = biological target: T10, PYR1 K59R V164C (Arabidopsis thaliana, UniProt O49686, K59R/V164C)
T10 construct: expressed in transfected cells; host or cells: S. cerevisiae Y190
In short: as §1

PYR1 K59R M158S = biological target: T11, PYR1 K59R M158S (Arabidopsis thaliana, UniProt O49686, K59R/M158S)
T11 construct: expressed in transfected cells; host or cells: S. cerevisiae Y190 two-hybrid reporter strain
In short: as §1

PYR1 K59R M158A = biological target: T12, PYR1 K59R M158A (Arabidopsis thaliana, UniProt O49686, K59R/M158A)
T12 construct: expressed in transfected cells; host or cells: S. cerevisiae Y190 two-hybrid reporter strain
In short: as §1

PYR1 K59R V164H = biological target: T13, PYR1 K59R V164H (Arabidopsis thaliana, UniProt O49686, K59R/V164H)
T13 construct: expressed in transfected cells; host or cells: S. cerevisiae Y190
In short: as §1

PYR1 K59R T162K = biological target: T14, PYR1 K59R T162K (Arabidopsis thaliana, UniProt O49686, K59R/T162K)
T14 construct: expressed in transfected cells; host or cells: S. cerevisiae Y190
In short: as §1

PYR1 K59R V164A = biological target: T15, PYR1 K59R V164A (Arabidopsis thaliana, UniProt O49686, K59R/V164A)
T15 construct: expressed in transfected cells; host or cells: S. cerevisiae Y190
In short: as §1

PYR1 K59R V164F = biological target: T16, PYR1 K59R V164F (Arabidopsis thaliana, UniProt O49686, K59R/V164F)
T16 construct: expressed in transfected cells; host or cells: S. cerevisiae Y190
In short: as §1

PYR1 K59R N167D = biological target: T17, PYR1 K59R N167D (Arabidopsis thaliana, UniProt O49686, K59R/N167D)
T17 construct: expressed in transfected cells; host or cells: S. cerevisiae Y190 two-hybrid reporter strain
In short: as §1

PYR1 K59R M158T = biological target: T18, PYR1 K59R M158T (Arabidopsis thaliana, UniProt O49686, K59R/M158T)
T18 construct: expressed in transfected cells; host or cells: S. cerevisiae Y190 two-hybrid reporter strain
In short: as §1

PYR1 K59R F108C = biological target: T19, PYR1 K59R F108C (Arabidopsis thaliana, UniProt O49686, F108C/K59R)
T19 construct: expressed in transfected cells; host or cells: S. cerevisiae Y190 yeast two-hybrid reporter strain
In short: as §1

PYR1 K59R F108T = biological target: T20, PYR1 K59R F108T (Arabidopsis thaliana, UniProt O49686, F108T/K59R)
T20 construct: expressed in transfected cells; host or cells: S. cerevisiae Y190 yeast two-hybrid reporter strain
In short: as §1

PYR1 K59R F108A = biological target: T21, PYR1 K59R F108A (Arabidopsis thaliana, UniProt O49686, F108A/K59R)
T21 construct: expressed in transfected cells; host or cells: S. cerevisiae Y190 yeast two-hybrid reporter strain
In short: as §1

Measured: Threshold

T12 sequence (O49686 whole entry K59R/M158A): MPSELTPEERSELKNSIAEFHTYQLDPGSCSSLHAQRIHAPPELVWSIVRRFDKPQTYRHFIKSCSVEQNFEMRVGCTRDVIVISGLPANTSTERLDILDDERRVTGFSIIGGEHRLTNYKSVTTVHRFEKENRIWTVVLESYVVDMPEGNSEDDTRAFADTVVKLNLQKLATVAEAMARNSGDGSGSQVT
T12 sequence (Q9CAJ0 23-511 partner): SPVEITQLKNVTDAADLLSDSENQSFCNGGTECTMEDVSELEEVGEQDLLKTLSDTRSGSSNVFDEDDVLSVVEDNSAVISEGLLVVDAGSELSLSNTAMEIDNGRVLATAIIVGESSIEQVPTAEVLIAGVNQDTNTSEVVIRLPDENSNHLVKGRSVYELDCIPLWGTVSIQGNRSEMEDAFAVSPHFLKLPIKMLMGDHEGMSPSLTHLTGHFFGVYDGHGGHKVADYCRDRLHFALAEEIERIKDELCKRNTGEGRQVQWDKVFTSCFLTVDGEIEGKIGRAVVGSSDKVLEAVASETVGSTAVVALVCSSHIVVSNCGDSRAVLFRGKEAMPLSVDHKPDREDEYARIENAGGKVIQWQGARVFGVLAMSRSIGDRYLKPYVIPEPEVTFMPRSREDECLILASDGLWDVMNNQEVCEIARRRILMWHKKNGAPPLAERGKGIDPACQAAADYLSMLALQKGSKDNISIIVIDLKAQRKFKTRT
T15 sequence (O49686 whole entry K59R/V164A): as the sequence (O49686 whole entry K59R/M158A) above, with A158M, V164A counted along it
T15 sequence (Q9CAJ0 23-511 partner): as the sequence (Q9CAJ0 23-511 partner) above
T18 sequence (Q9CAJ0 23-511): as the sequence (Q9CAJ0 23-511 partner) above
T18 sequence (O49686 whole entry K59R/M158T): as the sequence (O49686 whole entry K59R/M158A) above, with A158T counted along it
T10 sequence (Q9CAJ0 23-511, stated change not applied): as the sequence (Q9CAJ0 23-511 partner) above
T10 sequence (O49686 whole entry K59R/V164C): as the sequence (O49686 whole entry K59R/M158A) above, with A158M, V164C counted along it
T13 sequence (O49686 whole entry K59R/V164H): as the sequence (O49686 whole entry K59R/M158A) above, with A158M, V164H counted along it
T13 sequence (Q9CAJ0 23-511 partner): as the sequence (Q9CAJ0 23-511 partner) above
T7 sequence (O49686 whole entry K59R/N167S): as the sequence (O49686 whole entry K59R/M158A) above, with A158M, N167S counted along it
T7 sequence (Q9CAJ0 23-511 partner): as the sequence (Q9CAJ0 23-511 partner) above
T21 sequence (O49686 whole entry K59R/F108A): as the sequence (O49686 whole entry K59R/M158A) above, with F108A, A158M counted along it
T21 sequence (Q9CAJ0 23-511 partner): as the sequence (Q9CAJ0 23-511 partner) above
T6 sequence (O49686 whole entry K59R/V164M): as the sequence (O49686 whole entry K59R/M158A) above, with A158M, V164M counted along it
T6 sequence (Q9CAJ0 23-511 partner): as the sequence (Q9CAJ0 23-511 partner) above
T5 sequence (O49686 whole entry K59R/V164T): as the sequence (O49686 whole entry K59R/M158A) above, with A158M, V164T counted along it
T5 sequence (Q9CAJ0 23-511 partner): as the sequence (Q9CAJ0 23-511 partner) above
T17 sequence (O49686 whole entry K59R/N167D): as the sequence (O49686 whole entry K59R/M158A) above, with A158M, N167D counted along it
T17 sequence (Q9CAJ0 23-511 partner): as the sequence (Q9CAJ0 23-511 partner) above
T14 sequence (O49686 whole entry K59R/T162K): as the sequence (O49686 whole entry K59R/M158A) above, with A158M, T162K counted along it
T14 sequence (Q9CAJ0 23-511, further chain): as the sequence (Q9CAJ0 23-511 partner) above
T16 sequence (O49686 whole entry K59R/V164F): as the sequence (O49686 whole entry K59R/M158A) above, with A158M, V164F counted along it
T16 sequence (Q9CAJ0 23-511 partner): as the sequence (Q9CAJ0 23-511 partner) above
T4 sequence (O49686 whole entry K59R/T162L): as the sequence (O49686 whole entry K59R/M158A) above, with A158M, T162L counted along it
T4 sequence (Q9CAJ0 23-511 partner): as the sequence (Q9CAJ0 23-511 partner) above
T19 sequence (O49686 whole entry K59R/F108C): as the sequence (O49686 whole entry K59R/M158A) above, with F108C, A158M counted along it
T19 sequence (Q9CAJ0 23-511 partner): as the sequence (Q9CAJ0 23-511 partner) above
T1 sequence (O49686 whole entry K59R/V164E): as the sequence (O49686 whole entry K59R/M158A) above, with A158M, V164E counted along it
T1 sequence (Q9CAJ0 23-511 partner): as the sequence (Q9CAJ0 23-511 partner) above
T9 sequence (O49686 whole entry K59R/N167Q): as the sequence (O49686 whole entry K59R/M158A) above, with A158M, N167Q counted along it
T9 sequence (Q9CAJ0 23-511, further chain): as the sequence (Q9CAJ0 23-511 partner) above
T20 sequence (O49686 whole entry K59R/F108T): as the sequence (O49686 whole entry K59R/M158A) above, with F108T, A158M counted along it
T20 sequence (Q9CAJ0 23-511 partner): as the sequence (Q9CAJ0 23-511 partner) above
T3 sequence (O49686 whole entry K59R/M158V): as the sequence (O49686 whole entry K59R/M158A) above, with A158V counted along it
T3 sequence (Q9CAJ0 23-511, further chain): as the sequence (Q9CAJ0 23-511 partner) above
T11 sequence (O49686 whole entry K59R/M158S): as the sequence (O49686 whole entry K59R/M158A) above, with A158S counted along it
T11 sequence (Q9CAJ0 23-511 partner): as the sequence (Q9CAJ0 23-511 partner) above
T8 sequence (O49686 whole entry K59R/A160N): as the sequence (O49686 whole entry K59R/M158A) above, with A158M, A160N counted along it
T8 sequence (Q9CAJ0 23-511 partner): as the sequence (Q9CAJ0 23-511 partner) above
T2 sequence (O49686 whole entry K59R/N167C): as the sequence (O49686 whole entry K59R/M158A) above, with A158M, N167C counted along it
T2 sequence (Q9CAJ0 23-511 partner): as the sequence (Q9CAJ0 23-511 partner) above

N#Cc1c(Cl)cccc1Cl [Dichlobenil, dichlobenil]
not listed: PYR1 K59R F108C | PYR1 K59R F108T | PYR1 K59R F108A
100 µM: all other assays above

C#CCOc1ccc(CCNC(=O)C(OCC#C)c2ccc(Cl)cc2)cc1OC (stereo not drawn) [Mandipropamid, mandipropamid]
100 µM: PYR1 K59R F108C | PYR1 K59R F108T | PYR1 K59R F108A
